Source: US20210251229A1, “PLANT REGULATOR COMPOSITIONS” (Suntton Company Limited, priority 2020, published 2021)

Assays:
Format in all cases: in vivo
[1] = system: spring wheat (Scotia variety); experiment: Spring wheat (Scotia variety) field trial, Arnprior, Ontario: spray at late booting stage, yield; conditions: EBR 0.05 ppm applied with Ethephon 0.18%
Protocol: A spring wheat (Scotia variety) trial is carried out in Arnprior, Ontario, Canada. Typically, Ethephon alone has been used to reduce lodging in wheat. However, it can lead to the loss of yield, especially when it is sprayed at late booting stage.

[2] = system: table grape (Flame variety); experiment: Table grape (Flame variety) field trial, Coachella, Calif.: spray at fruit size 12 mm; conditions: sprayed at fruit size 12 mm, GA3 2.00 ppm (EBR 0.05 ppm in the combination), 100 gal water per acre
Text: A table grape (Flame variety) trial was set up in Coachella, Calif. Typically, GA3 alone has been used as a growth stimulator on table grape at sizing (berry size 10-14 mm), but it can cause uneven ripening and size of berry. [table]

[3] = system: table grape (Thomson green seedless variety); experiment: Table grape (Thomson green seedless variety) field trial, Mecca, Calif.: spray at fruit size 12 mm; conditions: sprayed at fruit size 12 mm, GA3 4.0 ppm (EBR 0.1 ppm in the combination)
Protocol: A table grape (Thomson green seedless variety) trial is carried out in Mecca, Calif. Typically, GA3 alone has been used as growth stimulator on table grape at sizing (berry size 10-14 mm), but it can cause uneven ripening and size of berry. [table]

Cherry (Bing variety) = Cherry (Bing variety) field trials, Lodi, Calif.: growth regulation effects, spray at straw color; conditions: sprayed at straw color, GA3 4.0 ppm (EBR 0.1 ppm in the combination)
Protocol: Two Cherry (Bing variety) trials are conducted in Lodi, Calif. to compare growth regulation effects of Gibberellic acid (GA3) and Composition of GA3 and 24-epibrassinolide (EBR). Typically, GA3 alone is commonly used on cherry at straw color for the elongation of storage life, but the application of GA3 often causes uneven ripening. [table]

| SMILES | Effect of EBR on loss of yield caused by Ethephon [1] | Fruits picked [2] | Number of picks needed [2] | Ripening / uniformity of color and size [3] | Fruits picked ([3]; 100 gal water per acre) | Ripening / uniformity of color and size (Cherry (Bing variety)) | Fruits picked (Cherry (Bing variety); 100 gal water per acre) | Number of picks needed (Cherry (Bing variety); 100 gal water per acre) |
| --- | --- | --- | --- | --- | --- | --- | --- | --- |
| CC(C)[C@@H](C)[C@@H](O)[C@H](O)[C@@H](C)[C@H]1CC[C@H]2[C@@H]3COC(=O)[C@H]4C[C@H](O)[C@H](O)C[C@]4(C)[C@H]3CC[C@]12C [EBR, 24-epibrassinolide] | save/reverse the loss of yield | – | – | – | – | – | – | – |
| C=C1C[C@]23C[C@@]1(O)CC[C@H]2[C@@]12C=C[C@H](O)[C@@](C)(C(=O)O1)[C@H]2[C@@H]3C(=O)O [GA3, Gibberellic acid] | – | Picked 90% of fruits | four | the uneven ripening | Picked 85% of fruits | the uneven ripening | Picked 85% of fruits | four |
